Data taken from patent publication US20260176320A1, “MODULATORS OF G-PROTEIN COUPLED RECEPTORS” (priority 2018, published 2026).
Read-outs that look alike come from different tables or passages of the source. Square brackets hold non-standard residues; d marks the D form. Peptide text beside a SMILES is read from it. * marks the point of attachment. X1 = O=C(CSCC(=O)*)NCCN1C(=O)c2ccccc2C1=O; Aib = CC(C)(N)C(=O)O

How the values were obtained:
[1] = molecular target: GLP-1R (Homo sapiens, UniProt P43220); assay: HitHunter cAMP assay (GLP-1R); type: cell-based; details: cAMP; for Emax: read-out: (Emax) GLP-1R
How it was run: (§1)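 Suspension cells expressing each receptor (10,000 per well) in HBSS with 10 mM HEPES, 625 μM IBMX and 0.2% BSA were treated with a 22-point 2-fold agonist series in duplicate for 30 minutes at room temperature. cAMP was detected by antibody immunocompetition with luminescence read after overnight incubation.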

[2] = molecular target: T1, GIP-R (Homo sapiens, UniProt P48546); assay: HitHunter cAMP assay (GIP-R); type: cell-based; details: cAMP; for Emax: read-out: (Emax) GIP-R
T1 sequence (P48546 22-466): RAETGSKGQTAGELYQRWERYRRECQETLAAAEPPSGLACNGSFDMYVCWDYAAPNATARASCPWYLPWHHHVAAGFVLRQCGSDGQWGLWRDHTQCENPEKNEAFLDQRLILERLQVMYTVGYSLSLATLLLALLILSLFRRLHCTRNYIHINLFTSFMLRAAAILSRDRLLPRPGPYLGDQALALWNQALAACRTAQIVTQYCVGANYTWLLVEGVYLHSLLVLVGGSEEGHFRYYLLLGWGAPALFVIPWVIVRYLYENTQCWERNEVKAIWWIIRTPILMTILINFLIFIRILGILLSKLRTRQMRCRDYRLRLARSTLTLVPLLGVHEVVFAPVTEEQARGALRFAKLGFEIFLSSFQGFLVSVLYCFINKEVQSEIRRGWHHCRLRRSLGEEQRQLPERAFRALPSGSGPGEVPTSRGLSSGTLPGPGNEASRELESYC
How it was run: as §1

[3] = Table 3, read-out: EC50 GLP-1R/nM
[4] = Table 3A, read-out: EC50 GLP-1R/nM
[5] = Table 3, read-out: EC50 GIP-R/nM
[6] = Table 3A, read-out: EC50 GIP-R/nM

GLP-1R, sequence (P43220 24-463): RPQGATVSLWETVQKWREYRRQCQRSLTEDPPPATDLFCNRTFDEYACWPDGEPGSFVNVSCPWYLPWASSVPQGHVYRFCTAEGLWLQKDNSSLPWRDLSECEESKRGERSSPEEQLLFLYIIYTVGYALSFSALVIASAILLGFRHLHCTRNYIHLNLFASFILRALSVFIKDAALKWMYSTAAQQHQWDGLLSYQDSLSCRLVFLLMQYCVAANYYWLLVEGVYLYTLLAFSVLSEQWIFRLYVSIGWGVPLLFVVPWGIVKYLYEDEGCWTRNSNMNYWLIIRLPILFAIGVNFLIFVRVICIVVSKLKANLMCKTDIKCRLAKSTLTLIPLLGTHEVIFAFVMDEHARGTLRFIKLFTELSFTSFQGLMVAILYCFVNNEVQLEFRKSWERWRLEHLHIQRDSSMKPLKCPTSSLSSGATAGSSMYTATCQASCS

Row | SMILES | EC50 ([1]; EC50 GLP-1R/nM, Table 3) | EC50 ([1]; EC50 GLP-1R/nM, Table 3A) | Emax ([1]; Table 3) | Emax ([1]; Table 3A) | Emax ([2]; Table 3A) | EC50 ([2]; read-out: EC50 GIP-R/nM, Table 3) | EC50 ([2]; read-out: EC50 GIP-R/nM, Table 3A) | EC50 [1, 3] | EC50 [1, 4] | Emax ([2]; Table 3) | EC50 [2, 5] | EC50 [2, 6] | EC50 ([2]; EC50 GIP-R/nM, Table 3A)
1 | CC[C@H](C)[C@H](NC(=O)[C@H](CO)NC(=O)[C@H](Cc1ccc(O)cc1)NC(=O)[C@H](CC(=O)O)NC(=O)[C@H](CO)NC(=O)[C@@H](NC(=O)[C@H](Cc1ccccc1)NC(=O)[C@@H](NC(=O)CNC(=O)[C@H](CCC(=O)O)NC(=O)CSCC(=O)NCCN1C(=O)c2ccccc2C1=O)[C@@H](C)O)[C@@H](C)O)C(=O)N[C@@H](Cc1ccc(O)cc1)C(=O)N[C@@H](CC(C)C)C(=O)N[C@@H](CC(=O)O)C(=O)N[C@@H](CCC(=O)O)C(=O)N[C@@H](CCC(N)=O)C(=O)N[C@@H](C)C(=O)N[C@@H](C)C(=O)NC(C)(C)C(=O)N[C@@H](CCC(=O)O)C(=O)N[C@@H](Cc1ccccc1)C(=O)N[C@H](C(=O)N[C@@H](CC(N)=O)C(=O)N[C@@H](Cc1c[nH]c2ccccc12)C(=O)N[C@@H](CC(C)C)C(=O)N[C@@H](CC(C)C)C(=O)N[C@@H](C)C(=O)NCC(=O)NCC(=O)N1CCC[C@H]1C(=O)N[C@@H](CO)C(=O)N[C@@H](CO)C(=O)NCC(=O)N[C@@H](C)C(=O)N1CCC[C@H]1C(=O)N1CCC[C@H]1C(=O)N1CCC[C@H]1C(=O)N[C@@H](CO)C(=O)N[C@@H](CCCCN)C(N)=O)C(C)C [Compound 150] (X1-EGTFTSDYSIYLDEQAA[Aib]EFVNWLLAGGPSSGAPPPSK-NH2) | 1 to 10 nM | 1 to 10 nM | 95 to 113% | 95 to 113% | 118 to 130% | < 1 nM | < 1 nM | – | – | – | – | – | –
2 | CCCCCCCCCCCCCCCC(=O)N[C@@H](CCC(=O)NCCCC[C@H](NC(=O)[C@H](CO)NC(=O)[C@@H]1CCCN1C(=O)[C@@H]1CCCN1C(=O)[C@@H]1CCCN1C(=O)[C@H](C)NC(=O)CNC(=O)[C@H](CO)NC(=O)[C@H](CO)NC(=O)[C@@H]1CCCN1C(=O)CNC(=O)CNC(=O)[C@H](C)NC(=O)[C@H](CC(C)C)NC(=O)[C@H](CC(C)C)NC(=O)[C@H](Cc1c[nH]c2ccccc12)NC(=O)[C@H](CC(N)=O)NC(=O)[C@@H](NC(=O)[C@H](Cc1ccccc1)NC(=O)[C@H](CCC(=O)O)NC(=O)C(C)(C)NC(=O)[C@H](C)NC(=O)[C@H](C)NC(=O)[C@H](CCC(N)=O)NC(=O)[C@H](CCCCN)NC(=O)[C@H](CC(=O)O)NC(=O)[C@H](CC(C)C)NC(=O)[C@H](Cc1ccc(O)cc1)NC(=O)[C@@H](NC(=O)[C@H](CO)NC(=O)[C@H](Cc1ccc(O)cc1)NC(=O)[C@H](CC(=O)O)NC(=O)[C@H](CO)NC(=O)[C@@H](NC(=O)[C@H](Cc1ccccc1)NC(=O)[C@@H](NC(=O)CNC(=O)[C@@H](CCC(=O)O)NC(=O)CSCC(=O)NCCN1C(=O)CSC1=O)[C@@H](C)O)[C@@H](C)O)[C@@H](C)CC)C(C)C)C(N)=O)C(=O)O [Compound 53] | – | – | 99% | 99% | 62% | – | – | 1 to 10 nM | 1 to 10 nM | 62% | 1 to 10 nM | 1 to 10 nM | –
3 | CCCCCCCCCCCCCCCC(=O)N[C@@H](CCC(=O)NCCCC[C@H](NC(=O)[C@H](CO)NC(=O)[C@@H]1CCCN1C(=O)[C@@H]1CCCN1C(=O)[C@@H]1CCCN1C(=O)[C@H](C)NC(=O)CNC(=O)[C@H](CO)NC(=O)[C@H](CO)NC(=O)[C@@H]1CCCN1C(=O)CNC(=O)CNC(=O)[C@H](C)NC(=O)[C@H](CC(C)C)NC(=O)[C@H](CC(C)C)NC(=O)[C@H](Cc1c[nH]c2ccccc12)NC(=O)[C@H](CC(N)=O)NC(=O)[C@@H](NC(=O)[C@H](Cc1ccccc1)NC(=O)[C@H](CCC(=O)O)NC(=O)C(C)(C)NC(=O)[C@H](C)NC(=O)[C@H](C)NC(=O)[C@H](CCC(N)=O)NC(=O)[C@H](CCCCN)NC(=O)[C@H](CC(=O)O)NC(=O)[C@H](CC(C)C)NC(=O)[C@H](Cc1ccc(O)cc1)NC(=O)[C@@H](NC(=O)[C@H](CO)NC(=O)[C@H](Cc1ccc(O)cc1)NC(=O)[C@H](CC(=O)O)NC(=O)[C@H](CO)NC(=O)[C@@H](NC(=O)[C@H](Cc1ccccc1)NC(=O)[C@@H](NC(=O)CNC(=O)[C@H](CCC(=O)O)NC(=O)CSCC(=O)NCCN1C[C@H](C)CC1=O)[C@@H](C)O)[C@@H](C)O)[C@@H](C)CC)C(C)C)C(N)=O)C(=O)O (single isomer, unassigned) [Compound 28] | – | – | 101% | 101% | 57% | – | – | – | – | 57% | – | – | –
4 | CCCCCCCCCCCCCCCC(=O)NCCCC[C@H](NC(=O)[C@H](CO)NC(=O)[C@@H]1CCCN1C(=O)[C@@H]1CCCN1C(=O)[C@@H]1CCCN1C(=O)[C@H](C)NC(=O)CNC(=O)[C@H](CO)NC(=O)[C@H](CO)NC(=O)[C@@H]1CCCN1C(=O)CNC(=O)CNC(=O)[C@H](C)NC(=O)[C@H](CC(C)C)NC(=O)[C@H](CC(C)C)NC(=O)[C@H](Cc1c[nH]c2ccccc12)NC(=O)[C@H](CC(N)=O)NC(=O)[C@@H](NC(=O)[C@H](Cc1ccccc1)NC(=O)[C@H](CCC(=O)O)NC(=O)C(C)(C)NC(=O)[C@H](C)NC(=O)[C@H](C)NC(=O)[C@H](CCC(N)=O)NC(=O)[C@H](CCCCN)NC(=O)[C@H](CC(=O)O)NC(=O)[C@H](CC(C)C)NC(=O)[C@H](Cc1ccc(O)cc1)NC(=O)[C@@H](NC(=O)[C@H](CO)NC(=O)[C@H](Cc1ccc(O)cc1)NC(=O)[C@H](CC(=O)O)NC(=O)[C@H](CO)NC(=O)[C@@H](NC(=O)[C@H](Cc1ccccc1)NC(=O)[C@@H](NC(=O)CNC(=O)[C@H](CCC(=O)O)NC(=O)CSCC(=O)NCCN1C(=O)CSC1=O)[C@@H](C)O)[C@@H](C)O)[C@@H](C)CC)C(C)C)C(=O)O [Compound 56] | – | – | 110% | 110% | 60% | – | – | 0.1 to 1 nM | 0.1 to 1 nM | 60% | 1 to 10 nM | 1 to 10 nM | –
5 | CCCCCCCCCCCCCCCC(=O)N[C@@H](CCC(=O)NCCCC[C@H](NC(=O)[C@H](CO)NC(=O)[C@@H]1CCCN1C(=O)[C@@H]1CCCN1C(=O)[C@@H]1CCCN1C(=O)[C@H](C)NC(=O)CNC(=O)[C@H](CO)NC(=O)[C@H](CO)NC(=O)[C@@H]1CCCN1C(=O)CNC(=O)CNC(=O)[C@H](C)NC(=O)[C@H](CC(C)C)NC(=O)[C@H](CC(C)C)NC(=O)[C@H](Cc1c[nH]c2ccccc12)NC(=O)[C@H](CC(N)=O)NC(=O)[C@@H](NC(=O)[C@H](Cc1ccccc1)NC(=O)[C@H](CCC(=O)O)NC(=O)C(C)(C)NC(=O)[C@H](C)NC(=O)[C@H](C)NC(=O)[C@H](CCC(N)=O)NC(=O)[C@H](CCCCN)NC(=O)[C@H](CC(=O)O)NC(=O)[C@H](CC(C)C)NC(=O)[C@H](Cc1ccc(O)cc1)NC(=O)[C@@H](NC(=O)[C@H](CO)NC(=O)[C@H](Cc1ccc(O)cc1)NC(=O)[C@H](CC(=O)O)NC(=O)[C@H](CO)NC(=O)[C@@H](NC(=O)[C@H](Cc1ccccc1)NC(=O)[C@@H](NC(=O)CNC(=O)[C@H](CCC(=O)O)NC(=O)CSCC(=O)NCCN1C(=O)[C@@H]2C=C[C@H]1C2)[C@@H](C)O)[C@@H](C)O)[C@@H](C)CC)C(C)C)C(N)=O)C(=O)O [Compound 290] | – | < 0.1 nM | – | 100% | 10% | – | – | – | – | – | – | – | 10 to 100 nM
6 | CC[C@H](C)[C@H](NC(=O)[C@H](CO)NC(=O)[C@H](Cc1ccc(O)cc1)NC(=O)[C@H](CC(=O)O)NC(=O)[C@H](CO)NC(=O)[C@@H](NC(=O)[C@H](Cc1ccccc1)NC(=O)[C@@H](NC(=O)CNC(=O)[C@H](CCC(=O)O)NC(=O)CC(=O)NCCCN1C(=O)c2ccccc2C1=O)[C@@H](C)O)[C@@H](C)O)C(=O)N[C@@H](Cc1ccc(O)cc1)C(=O)N[C@@H](CC(C)C)C(=O)N[C@@H](CC(=O)O)C(=O)N[C@@H](CCCCN)C(=O)N[C@@H](CCC(N)=O)C(=O)N[C@@H](C)C(=O)N[C@@H](C)C(=O)NC(C)(C)C(=O)N[C@@H](CCC(=O)O)C(=O)N[C@@H](Cc1ccccc1)C(=O)N[C@H](C(=O)N[C@@H](CC(N)=O)C(=O)N[C@@H](Cc1c[nH]c2ccccc12)C(=O)N[C@@H](CC(C)C)C(=O)N[C@@H](CC(C)C)C(=O)N[C@@H](C)C(=O)NCC(=O)NCC(=O)N1CCC[C@H]1C(=O)N[C@@H](CO)C(=O)N[C@@H](CO)C(=O)NCC(=O)N[C@@H](C)C(=O)N1CCC[C@H]1C(=O)N1CCC[C@H]1C(=O)N1CCC[C@H]1C(=O)N[C@@H](CO)C(=O)N[C@@H](CCCCN)C(N)=O)C(C)C [Compound 125] | – | – | 94 to 100% | 94 to 100% | 54 to 60% | – | – | 10 to 100 nM | 10 to 100 nM | 54 to 60% | 1 to 10 nM | 1 to 10 nM | –
